Data on three compounds can be found in patent US7858806B2, “Crystal form of 5-hydroxy-1-methylhydantoin” (Nippon Zoki Pharmaceutical Co., Ltd., priority 2002, dated 2010).

Structures are written as SMILES. Entries after “also recorded” stand apart in the source; their conditions may differ.

Holding throughout (format): physicochemical
The nature of one series: Solubility in water.
Series [1] can be described thus: Measurement of bulk density (graduated cylinder, before and after tight packing). The settings on record: 40 g in graduated cylinder; for Bulk Density After Tight Packing: after patting until volume unchanged. How it is done: Each 40 g of the I-form crystals produced in Reference Example 1 and the II-form crystals produced in Example 2 were placed in a graduated cylinder to measure the volume whereby bulk density was calculated. After that, each graduated cylinder was lightly patted by hand under the same condition until the volume of the dry powder became unchanged so that the crystals were tightly packed. The volume after the tight packing was measured and bulk density was calculated.

Series [2] in a line: Stability of the crystal form.
A short description of series [3]: Adhesion onto solid surface during handling. The following applies: II-form compared with I-form crystals, after various handlings. How it is done: In addition, in the II-form crystals of the present invention, the bulk density is higher than in the I-form crystals and the volume for the same weight is small whereby it is now possible to manufacture small tablets and so to provide the tablets which are easily administered to patients. The advantage of high bulk density is also advantageous in terms of storage and handling when production is conducted in an industrial scale. Further, it has been found after various handlings of both II-form crystals and I-form crystals that adhesion onto the solid surface such as glass wall is lower in the II-form crystals than in the I-form crystals. Accordingly, in the case of the II-form crystals, loss during the manufacture can be reduced and labor such as cleaning and checking for removal of adhered things to the manufacturing devices and apparatuses can be reduced as well.

Turning to `CN1C(=O)NC(=O)C1O` (stereo not shown) [5-hydroxy-1-methylhydantoin, 5-hydroxy-1-methylimidazolidin-2,4-dione], the solubility in water result in the series “Solubility in water” is “very highly soluble in water; also recorded: very easily soluble in water”.

Consider `CN1C(=O)NC(=O)C1O` (stereo not shown) [I-form crystals, 5-hydroxy-1-methylimidazolidin-2,4-dione, reference compound], for which, in series [1] (listed as I-form Crystals), the “Bulk Density After Tight Packing” value was 0.46 g/mL and the “Bulk Density Before Tight Packing” value stood at 0.35 g/mL.

With `CN1C(=O)NC(=O)C1O` (stereo not shown) [II-form crystals, 5-hydroxy-1-methylimidazolidin-2,4-dione], the stability result in series [2] is given as “sufficient stability”. In addition, in series [1] (listed as II-form Crystals), the “Bulk Density After Tight Packing” value is listed as 0.64 g/mL and the “Bulk Density Before Tight Packing” value is given as 0.54 g/mL. The “adhesion onto the solid surface such as glass wall” value in series [3] is on record as “lower”.
